Article PMC9090415, “Discovery of small molecule inhibitors of Plasmodium falciparum apicoplast DNA polymerase” (Journal of Enzyme Inhibition and Medicinal Chemistry, 2022)

Molecular target: P. falciparum apicoplast DNA polymerase (Pf-apPOL) (Plasmodium falciparum, UniProt Q8ILY1)
Assay: Fluorescence-based high-throughput DNA polymerase assay (molecular beacon), primary screen and dose-response
Format: biochemical
Details: for DNA Pol: unit not given, 90 min, 10 µM; for % inhibition Apo pol 10' 2.5 / % inhibition Apo pol 10' 5 / % inhibition Apo pol 10' 10 / % inhibition Apo pol 10' 20 / % inhibition Apo pol 10' 40 / % inhibition Apo pol 10' 80: read at 10'; for % inhibition Apol 90' 2.5 / % inhibition Apol 90' 5 / % inhibition Apol 90' 10 / % inhibition Apol 90' 20 / % inhibition Apol 90' 40 / % inhibition Apol 90' 80 / % inhibition ApPOL 90' 2.5 / % inhibition ApPOL 90' 5 / % inhibition ApPOL 90' 10 / % inhibition ApPOL 90' 20 / % inhibition ApPOL 90' 40 / % inhibition ApPOL 90' 80: read at 90'; for % inhibition apPOL 180' 2.5 / % inhibition apPOL 180' 5 / % inhibition apPOL 180' 10 / % inhibition apPOL 180' 20 / % inhibition apPOL 180' 40 / % inhibition apPOL 180' 80: read at 180'; for % inhibition Apo pol 5' 2.5 / % inhibition Apo pol 5' 5 / % inhibition Apo pol 5' 10 / % inhibition Apo pol 5' 20 / % inhibition Apo pol 5' 40 / % inhibition Apo pol 5' 80: read at 5'; for % inhibition Apol 40' 2.5 / % inhibition Apol 40' 5 / % inhibition Apol 40' 10 / % inhibition Apol 40' 20 / % inhibition Apol 40' 40 / % inhibition Apol 40' 80: read at 40'
Procedure, shortened: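 Single-point screening used 10 µM compound with 20 nM polymerase, 20 nM hairpin substrate and 6 µM dNTPs for 90 min at 25 °C. Confirmatory titrations (2.5–80 µM) followed fluorescence at three times, and IC50 was derived from a fit including a cooperativity term n.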

[1] = 186 hits, DNA Pol (screen value)

Chain of P. falciparum apicoplast DNA polymerase (Pf-apPOL) (Q8ILY1 entry or part of it): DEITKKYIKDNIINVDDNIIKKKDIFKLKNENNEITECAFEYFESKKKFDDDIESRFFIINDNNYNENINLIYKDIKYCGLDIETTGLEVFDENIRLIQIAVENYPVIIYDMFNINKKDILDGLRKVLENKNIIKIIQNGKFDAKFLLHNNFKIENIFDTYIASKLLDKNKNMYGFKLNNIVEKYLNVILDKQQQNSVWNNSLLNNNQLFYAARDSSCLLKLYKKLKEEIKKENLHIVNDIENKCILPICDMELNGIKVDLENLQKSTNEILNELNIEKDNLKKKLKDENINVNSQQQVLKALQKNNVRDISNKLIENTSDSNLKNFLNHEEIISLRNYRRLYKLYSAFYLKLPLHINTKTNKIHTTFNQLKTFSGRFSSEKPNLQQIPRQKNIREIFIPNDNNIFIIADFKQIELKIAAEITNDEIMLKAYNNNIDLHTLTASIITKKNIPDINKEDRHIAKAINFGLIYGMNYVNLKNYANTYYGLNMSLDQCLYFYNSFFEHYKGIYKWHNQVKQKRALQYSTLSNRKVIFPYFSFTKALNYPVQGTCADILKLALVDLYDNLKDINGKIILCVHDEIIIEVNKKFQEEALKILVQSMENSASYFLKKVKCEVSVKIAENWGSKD

CC(=O)Nc1cc(C(=O)c2cccs2)nn(-c2ccc(Cl)cc2)c1=O [KU0267905]
DNA Pol [1]: 68
DNA Pol ('DNA Pol' (screen value)): 68
% inhibition Apo pol 10' 2.5 (DRC-1, concentration 2.5): -1.115%
% inhibition Apo pol 10' 5 (DRC-1, concentration 5): 9.678%
% inhibition Apo pol 10' 10 (DRC-1, concentration 10): 23.8402%
% inhibition Apo pol 10' 20 (DRC-1, concentration 20): 30.1491%
% inhibition Apo pol 10' 40 (DRC-1, concentration 40): 60.7427%
% inhibition Apo pol 10' 80 (DRC-1, concentration 80): 68.442%
% inhibition Apol 90' 2.5 (DRC-1, concentration 2.5): -1.383%
% inhibition Apol 90' 5 (DRC-1, concentration 5): -2.969%
% inhibition Apol 90' 10 (DRC-1, concentration 10): 7.904%
% inhibition Apol 90' 20 (DRC-1, concentration 20): 14.4381%
% inhibition Apol 90' 40 (DRC-1, concentration 40): 45.4354%
% inhibition Apol 90' 80 (DRC-1, concentration 80): 70.7976%
% inhibition apPOL 180' 2.5 (DRC-1, concentration 2.5): -1.959%
% inhibition apPOL 180' 5 (DRC-1, concentration 5): -7.949%
% inhibition apPOL 180' 10 (DRC-1, concentration 10): -1.249%
% inhibition apPOL 180' 20 (DRC-1, concentration 20): 2.642%
% inhibition apPOL 180' 40 (DRC-1, concentration 40): 28.3479%
% inhibition apPOL 180' 80 (DRC-1, concentration 80): 62.799%
% inhibition Apo pol 5' (DRC-2, concentration 2.5): 7%
% inhibition Apol 40' (DRC-2, concentration 5): 7%
% inhibition Apol 40' (DRC-2, concentration 80): 52%
% inhibition ApPOL 90' (DRC-2, 90', concentration 5): 4%
% inhibition apPOL 180' (DRC-2, concentration 10): 4%
% inhibition apPOL 180' (DRC-2, concentration 80): 52%
% inhibition Apo pol 5' 2.5 (DRC-2, concentration 2.5): 7%
% inhibition Apo pol 5' 5 (DRC-2, concentration 5): 11%
% inhibition Apo pol 5' 10 (DRC-2, concentration 10): 21%
% inhibition Apo pol 5' 20 (DRC-2, concentration 20): 29%
% inhibition Apo pol 5' 40 (DRC-2, concentration 40): 40%
% inhibition Apo pol 5' 80 (DRC-2, concentration 80): 36%
% inhibition Apol 40' 2.5 (DRC-2, concentration 2.5): 4.64%
% inhibition Apol 40' 5 (DRC-2, concentration 5): 7%
% inhibition Apol 40' 10 (DRC-2, concentration 10): 15%
% inhibition Apol 40' 20 (DRC-2, concentration 20): 25%
% inhibition Apol 40' 40 (DRC-2, concentration 40): 44%
% inhibition Apol 40' 80 (DRC-2, concentration 80): 52%
% inhibition ApPOL 90' 2.5 (DRC-2, concentration 2.5): 3.39%
% inhibition ApPOL 90' 5 (DRC-2, concentration 5): 4%
% inhibition ApPOL 90' 10 (DRC-2, concentration 10): 12%
% inhibition ApPOL 90' 20 (DRC-2, concentration 20): 19%
% inhibition ApPOL 90' 40 (DRC-2, concentration 40): 42%
% inhibition ApPOL 90' 80 (DRC-2, concentration 80): 55%
% inhibition apPOL 180' 2.5 (DRC-2, concentration 2.5): -1.41%
% inhibition apPOL 180' 5 (DRC-2, concentration 5): 0.65%
% inhibition apPOL 180' 10 (DRC-2, concentration 10): 4%
% inhibition apPOL 180' 20 (DRC-2, concentration 20): 9%
% inhibition apPOL 180' 40 (DRC-2, concentration 40): 31%
% inhibition apPOL 180' 80 (DRC-2, concentration 80): 52%

Cc1ccsc1Cn1c(C)ccc1C [Molecule 70, Cc1ccsc1Cn1c(C)ccc1C]
DNA Pol [1]: 77
DNA Pol ('DNA Pol' (screen value)): 77
% inhibition Apo pol 10' 2.5 (DRC-1, concentration 2.5): 0.1737%
% inhibition Apo pol 10' 5 (DRC-1, concentration 5): 5.431%
% inhibition Apo pol 10' 10 (DRC-1, concentration 10): 19.8551%
% inhibition Apo pol 10' 20 (DRC-1, concentration 20): 37.488%
% inhibition Apo pol 10' 40 (DRC-1, concentration 40): 56.0716%
% inhibition Apo pol 10' 80 (DRC-1, concentration 80): 76.6416%
% inhibition Apol 90' 2.5 (DRC-1, concentration 2.5): -5.458%
% inhibition Apol 90' 5 (DRC-1, concentration 5): -2.713%
% inhibition Apol 90' 10 (DRC-1, concentration 10): 8.027%
% inhibition Apol 90' 20 (DRC-1, concentration 20): 21.1278%
% inhibition Apol 90' 40 (DRC-1, concentration 40): 39.127%
% inhibition Apol 90' 80 (DRC-1, concentration 80): 69.1434%
% inhibition apPOL 180' 2.5 (DRC-1, concentration 2.5): -10.1468%
% inhibition apPOL 180' 5 (DRC-1, concentration 5): -7.921%
% inhibition apPOL 180' 10 (DRC-1, concentration 10): -1.934%
% inhibition apPOL 180' 20 (DRC-1, concentration 20): 6.387%
% inhibition apPOL 180' 40 (DRC-1, concentration 40): 21.8537%
% inhibition apPOL 180' 80 (DRC-1, concentration 80): 54.6421%
% inhibition Apol 40' (DRC-2, concentration 80): 62%
% inhibition apPOL 180' (DRC-2, concentration 2.5): -6%
% inhibition apPOL 180' (DRC-2, concentration 5): -6%
% inhibition apPOL 180' (DRC-2, concentration 80): 62%
% inhibition Apo pol 5' 2.5 (DRC-2, concentration 2.5): -3.3%
% inhibition Apo pol 5' 5 (DRC-2, concentration 5): 5.66%
% inhibition Apo pol 5' 10 (DRC-2, concentration 10): 20%
% inhibition Apo pol 5' 20 (DRC-2, concentration 20): 32%
% inhibition Apo pol 5' 40 (DRC-2, concentration 40): 48%
% inhibition Apo pol 5' 80 (DRC-2, concentration 80): 47%
% inhibition Apol 40' 2.5 (DRC-2, concentration 2.5): -1.81%
% inhibition Apol 40' 5 (DRC-2, concentration 5): 4%
% inhibition Apol 40' 10 (DRC-2, concentration 10): 18%
% inhibition Apol 40' 20 (DRC-2, concentration 20): 33%
% inhibition Apol 40' 40 (DRC-2, concentration 40): 56%
% inhibition Apol 40' 80 (DRC-2, concentration 80): 62%
% inhibition ApPOL 90' 2.5 (DRC-2, concentration 2.5): -3%
% inhibition ApPOL 90' 5 (DRC-2, concentration 5): -0.174%
% inhibition ApPOL 90' 10 (DRC-2, concentration 10): 14%
% inhibition ApPOL 90' 20 (DRC-2, concentration 20): 28%
% inhibition ApPOL 90' 40 (DRC-2, concentration 40): 54%
% inhibition ApPOL 90' 80 (DRC-2, concentration 80): 64%
% inhibition apPOL 180' 2.5 (DRC-2, concentration 2.5): -6%
% inhibition apPOL 180' 5 (DRC-2, concentration 5): -6%
% inhibition apPOL 180' 10 (DRC-2, concentration 10): 5.64%
% inhibition apPOL 180' 20 (DRC-2, concentration 20): 16%
% inhibition apPOL 180' 40 (DRC-2, concentration 40): 45%
% inhibition apPOL 180' 80 (DRC-2, concentration 80): 62%

Cn1nc(-c2nc(-c3ccccc3)no2)c2c1CCN(C(=O)Cc1cccs1)C2 [Molecule 58, O=C(N1CCc2c(C1)c(nn2C)c1onc(n1)c1ccccc1)Cc1cccs1]
DNA Pol [1]: 38
DNA Pol ('DNA Pol' (screen value)): 38
% inhibition Apo pol 10' 2.5 (DRC-1, concentration 2.5): 10%
% inhibition Apo pol 10' 5 (DRC-1, concentration 5): 10%
% inhibition Apo pol 10' 10 (DRC-1, concentration 10): 35%
% inhibition Apo pol 10' 20 (DRC-1, concentration 20): 48%
% inhibition Apo pol 10' 40 (DRC-1, concentration 40): 65%
% inhibition Apo pol 10' 80 (DRC-1, concentration 80): 65%
% inhibition Apol 90' 2.5 (DRC-1, concentration 2.5): -0.451%
% inhibition Apol 90' 5 (DRC-1, concentration 5): 2.41%
% inhibition Apol 90' 10 (DRC-1, concentration 10): 21%
% inhibition Apol 90' 20 (DRC-1, concentration 20): 37%
% inhibition Apol 90' 40 (DRC-1, concentration 40): 58%
% inhibition Apol 90' 80 (DRC-1, concentration 80): 67%
% inhibition apPOL 180' 2.5 (DRC-1, concentration 2.5): -6%
% inhibition apPOL 180' 5 (DRC-1, concentration 5): -3.68%
% inhibition apPOL 180' 10 (DRC-1, concentration 10): 9%
% inhibition apPOL 180' 20 (DRC-1, concentration 20): 21%
% inhibition apPOL 180' 40 (DRC-1, concentration 40): 45%
% inhibition apPOL 180' 80 (DRC-1, concentration 80): 62%
% inhibition Apo pol 5' (DRC-2, concentration 5): 10%
% inhibition Apol 40' (DRC-2, concentration 2.5): 9%
% inhibition ApPOL 90' (DRC-2, 90', concentration 40): 54%
% inhibition ApPOL 90' (DRC-2, 90', concentration 80): 54%
% inhibition Apo pol 5' 2.5 (DRC-2, concentration 2.5): 7.55%
% inhibition Apo pol 5' 5 (DRC-2, concentration 5): 10%
% inhibition Apo pol 5' 10 (DRC-2, concentration 10): 18%
% inhibition Apo pol 5' 20 (DRC-2, concentration 20): 27%
% inhibition Apo pol 5' 40 (DRC-2, concentration 40): 28%
% inhibition Apo pol 5' 80 (DRC-2, concentration 80): 16%
% inhibition Apol 40' 2.5 (DRC-2, concentration 2.5): 9%
% inhibition Apol 40' 5 (DRC-2, concentration 5): 13%
% inhibition Apol 40' 10 (DRC-2, concentration 10): 24%
% inhibition Apol 40' 20 (DRC-2, concentration 20): 39%
% inhibition Apol 40' 40 (DRC-2, concentration 40): 51%
% inhibition Apol 40' 80 (DRC-2, concentration 80): 47%
% inhibition ApPOL 90' 2.5 (DRC-2, concentration 2.5): 7.37%
% inhibition ApPOL 90' 5 (DRC-2, concentration 5): 11%
% inhibition ApPOL 90' 10 (DRC-2, concentration 10): 23%
% inhibition ApPOL 90' 20 (DRC-2, concentration 20): 40%
% inhibition ApPOL 90' 40 (DRC-2, concentration 40): 54%
% inhibition ApPOL 90' 80 (DRC-2, concentration 80): 54%
% inhibition apPOL 180' 2.5 (DRC-2, concentration 2.5): 3.22%
% inhibition apPOL 180' 5 (DRC-2, concentration 5): 6%
% inhibition apPOL 180' 10 (DRC-2, concentration 10): 15%
% inhibition apPOL 180' 20 (DRC-2, concentration 20): 31%
% inhibition apPOL 180' 40 (DRC-2, concentration 40): 52%
% inhibition apPOL 180' 80 (DRC-2, concentration 80): 56%
% inhibition Apo pol 10' (first dose-response, concentration 2.5): 10%
% inhibition Apo pol 10' (first dose-response, concentration 5): 10%
% inhibition Apo pol 10' (first dose-response, concentration 40): 65%
% inhibition Apo pol 10' (first dose-response, concentration 80): 65%
% inhibition Apol 90' (first dose-response, 90', concentration 10): 21%
% inhibition apPOL 180' (first dose-response, concentration 10): 9%
% inhibition apPOL 180' (first dose-response, concentration 20): 21%
